Results: paper PMC5841303, “In silico screening for human norovirus antivirals reveals a novel non-nucleoside inhibitor of the viral polymerase” (Scientific Reports, 2018)

Columns and labels:
MNV = MNV plaque reduction assay in cell culture; format: cell-based, murine norovirus
Description: As mentioned above, the only robust cellular assay available for the evaluation of potential norovirus inhibitors is the closely related MNV assay. […] Consequently, 54 was further assessed to determine the IC50 value against MNV RdRp activity using an in vitro fluorescent assay. […] 54 was then assessed for cytotoxicity against RAW264.7 mouse macrophage cells using a cell viability assay. […] Using the plaque reduction assay, the inhibitory effects of 54 (0.5–50 µM) were examined against MNV plaque formation in cell culture. […] Compound solubility and its cell-membrane permeability properties could be further improved with structure-activity relationship enhancement of the 54 scaffold to facilitate cellular uptake, and therefore to increase antiviral efficacy. Work on this aspect is ongoing, and it will be reported in due course.
MNV-1 (CW1) culture assays were performed as previously described. Replication was examined using plaque assays[58],[64],[65]. Cytotoxicity was examined using a CellTitre Blue (Promega, Madison, WI, USA) viability assay as described previously.

Q414A norovirus RdRp = molecular target: T1, Q414A norovirus RdRp (Norovirus GII.4 (Norwalk virus, human norovirus), UniProt K4L8Z7, Q1603A); test: Fluorescent RdRp assay, Q414A mutant RdRp; format: biochemical; conditions: 0.1–100 µM
T1 sequence (K4L8Z7 1190-1699 Q1603A): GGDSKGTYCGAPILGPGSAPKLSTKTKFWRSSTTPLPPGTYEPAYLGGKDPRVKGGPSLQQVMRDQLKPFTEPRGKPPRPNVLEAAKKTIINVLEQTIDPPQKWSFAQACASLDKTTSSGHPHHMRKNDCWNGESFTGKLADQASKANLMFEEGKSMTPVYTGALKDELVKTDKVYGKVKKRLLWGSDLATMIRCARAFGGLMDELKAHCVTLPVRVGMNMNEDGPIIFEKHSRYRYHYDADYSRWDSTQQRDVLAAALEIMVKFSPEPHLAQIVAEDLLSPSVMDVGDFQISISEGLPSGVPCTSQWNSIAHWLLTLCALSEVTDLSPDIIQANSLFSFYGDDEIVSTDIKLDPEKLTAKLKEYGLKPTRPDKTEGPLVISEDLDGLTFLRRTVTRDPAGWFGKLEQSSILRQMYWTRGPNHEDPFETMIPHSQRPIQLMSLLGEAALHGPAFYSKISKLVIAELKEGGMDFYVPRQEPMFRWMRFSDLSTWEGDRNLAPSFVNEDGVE
From the text: (§1) Given the evidence of 54 being a site-B binding NNI, residues Q414 and R419 were mutated to alanine. These residues were previously shown by our research group and others to be critical for human norovirus RdRp site-B binding NNIs, and can create resistance to the drug through their mutagenesis[16],[17],[39]. After the mutant RdRps’ transcriptional activity was confirmed in a fluorescent RdRp assay (Q414A: 54%, R419A: 34% of wild-type activity, respectively), dose-response curves for 54 (0.1–100 µM) were produced to compare the IC50 values between the wild-type RdRp and the two mutant RdRps, Q414A and R419A (Fig. 13B). […]
(§2) Fluorescent RdRp activity assays were carried out as previously described[14],[62]. Briefly, RdRp activity was quantified by monitoring the formation of double-stranded RNA (dsRNA) from a single stranded homopolymeric template, poly(C) (Sigma Aldrich, St Louis, MO, USA), using the fluorescent dye PicoGreen (Life Technologies, Carlsbad, CA, USA). […] RdRps were incubated for 10 mins at 30 °C in the presence of the test compounds or the compound vehicle DMSO (0.5% vol/vol) before addition into the reaction mixture, which was then allowed to run 15 min at 30 °C then terminated with 10 mM EDTA, followed by PicoGreen staining and dsRNA quantitation. […] Antagonism was calculated using Compusyn software V1.0[59]. […]

norovirus RdRp = test: Counter-screen gel-shift RdRp assay (primed elongation of PE44-NoV template); format: biochemical, human norovirus; conditions: fixed concentration of 100 µM
Description: In this assay, a 32 nucleotide RNA template (PE44-NoV) is extended to 44 nucleotides in the presence of an active RdRp[16]. […] Inhibition of primed elongation of the PE44-NoV template was examined at a fixed concentration of 100 µM (Fig. 4D). In the absence of inhibition (0.5% DMSO vehicle only) the RNA template was extended to 44 nucleotides (Fig. 4D), evidenced by an upward gel shift and the appearance of the second, higher band.
(§3) Fluorescent RdRp activity assays were carried out as previously described[14],[62]. Briefly, RdRp activity was quantified by monitoring the formation of double-stranded RNA (dsRNA) from a single stranded homopolymeric template, poly(C) (Sigma Aldrich, St Louis, MO, USA), using the fluorescent dye PicoGreen (Life Technologies, Carlsbad, CA, USA). RdRp assays were performed in 384-well plates, and each reaction mixture contained 400 ng enzyme, 45 µM GTP, 10 ng/µL poly(C) RNA, 2.5 mM MnCl2, 5 mM dithiothreitol, (DTT), 0.01% bovine serum albumin (BSA), and 0.005% Tween 20 in 20 mM Tris-HCl, pH 7.5, with a final reaction volume of 25 µL. The previous published norovirus NNI NIC02 was used as a positive control. RdRps were incubated for 10 mins at 30 °C in the presence of the test compounds or the compound vehicle DMSO (0.5% vol/vol) before addition into the reaction mixture, which was then allowed to run 15 min at 30 °C then terminated with 10 mM EDTA, followed by PicoGreen staining and dsRNA quantitation. GraphPad Prism V6.05 (La Jolla, CA, USA) was used to plot the IC50 values. In cases where fluorescent enhancement was recorded for a compound instead of inhibition, a secondary gel-based polymerase activity assay was used as a counter-screen as described below, to exclude the possibility of RdRp activity enhancement (Supplementary Fig. S1). Primed elongation activity was examined in a gel-based assay as previously described[16],[63] using the RNA template (PE44-NoV, Fig. 4D). Gels were imaged using BioRad (Hercules, CA, U.SA) Geldoc Universal Hood II, running BioRad Image Lab software, V4.1, build 16. Antagonism was calculated using Compusyn software V1.0[59]. 54 and PPNDS (4:1 ratio) were tested alone and together against norovirus Sydney 2012 RdRp.

R419A norovirus RdRp = molecular target: T2, R419A norovirus RdRp (Norovirus GII.4 (Norwalk virus, human norovirus), UniProt K4L8Z7, R1608A); test: Fluorescent RdRp assay, R419A mutant RdRp; format: biochemical; conditions: 0.1–100 µM
T2 sequence (K4L8Z7 1190-1699 R1608A): T1 sequence (K4L8Z7 1190-1699 Q1603A)
From the text: as §1, §2

[1] = molecular target: human norovirus Sydney 2012 RdRp (Norovirus GII.4 (Norwalk virus, human norovirus), UniProt K4L8Z7); test: Combinational study of 54 and PPNDS (Compusyn combination index); format: biochemical; conditions: 54 with PPNDS, 4:1 ratio
Description: Despite the minimal activity in the cell culture system, RdRp inhibition by 54 is an important finding in the search of novel norovirus inhibitors. […] PPNDS (0.025–25 µM) and 54 (0.1–100 µM) were examined alone and together in a 1:4 ratio respectively (Fig. 13A), and the average of the combination indices at 50% (1.6), 75% (1.7) and 90% (1.8) inhibition was 1.7.
as §3

Compound: O=C1NN(c2ccccc2)C(=O)/C1=C/c1ccc(-c2ccc(S(=O)(=O)Nc3ccccc3)cc2)o1 [Compound 54]
- cytotoxicity seen in plaque assay (MNV; 50 µM, RAW264.7 cells): RAW264.7 cells thinning
- EC50 (MNV; 0.5–50 µM, read-out: EC50 against MNV in cell culture (plaque reduction)): > 50 µM
- effect on plaque numbers (MNV; up to 25 µM): no appreciable effect
- IC50 (Q414A norovirus RdRp): 7.8 µM
- inhibition of primed elongation activity (gel-shift) (norovirus RdRp): near complete abolishment of norovirus RdRp activity
- IC50 (R419A norovirus RdRp): 10.2 µM
- combination index at 50% inhibition [1]: 1.6
- combination index at 75% inhibition [1]: 1.7
- combination index at 90% inhibition [1]: 1.8
- average combination index ([1]; average over 50%, 75% and 90% inhibition): 1.7
